Results from patent US8044198B2, “Sirtuin modulating compounds” (Sirtris Pharmaceuticals, Inc., priority 2005, dated 2011).
Where two headings read alike, the source gives them in different places.

Target: T1, SIRT1 (Homo sapiens, UniProt Q96EB6)
T1 sequence (Q96EB6 1-747): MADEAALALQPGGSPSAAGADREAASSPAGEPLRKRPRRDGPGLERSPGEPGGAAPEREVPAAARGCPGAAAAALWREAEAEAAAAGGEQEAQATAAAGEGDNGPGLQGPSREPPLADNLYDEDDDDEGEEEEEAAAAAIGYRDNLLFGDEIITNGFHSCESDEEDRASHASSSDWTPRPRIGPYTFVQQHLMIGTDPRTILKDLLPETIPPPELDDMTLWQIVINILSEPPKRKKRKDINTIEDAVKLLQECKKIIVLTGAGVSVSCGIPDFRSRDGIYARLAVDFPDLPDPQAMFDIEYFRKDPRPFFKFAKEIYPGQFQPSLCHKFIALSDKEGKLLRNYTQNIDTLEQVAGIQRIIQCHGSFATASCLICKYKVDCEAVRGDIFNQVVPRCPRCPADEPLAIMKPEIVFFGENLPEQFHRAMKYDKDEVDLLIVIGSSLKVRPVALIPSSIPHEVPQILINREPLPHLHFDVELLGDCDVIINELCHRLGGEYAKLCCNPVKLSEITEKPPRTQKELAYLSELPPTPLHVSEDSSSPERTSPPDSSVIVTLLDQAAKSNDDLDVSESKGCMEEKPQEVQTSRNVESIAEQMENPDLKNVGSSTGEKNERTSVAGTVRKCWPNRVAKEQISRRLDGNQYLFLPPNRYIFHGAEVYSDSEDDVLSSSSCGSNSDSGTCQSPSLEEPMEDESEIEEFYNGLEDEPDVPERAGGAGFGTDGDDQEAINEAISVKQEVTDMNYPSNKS
Experiment: SIRT1 mass spectrometry (MS) based deacetylation assay; for FOLD ACT. MS: test concentration or dose not given here
Format: biochemical
Conditions: for IC50: Sirt1 Inhibitors

[1] = Sirt1 activators, fold activation as determined by MS
[2] = Sirt1 activators, mass spectrometry assay, read-out: ED50 MS ASSAY
[3] = SIRT1 activation, mass spectrometry assay, read-out: ED50 MS ASSAY
[4] = SIRT1 fold activation as determined by MS

Row | SMILES | FOLD ACT. MS [1] | EC50 [2] [µM] | EC50 [3] [µM] | FOLD ACT. MS [4] | further results
1 | N=C(Nc1ccc(Cl)cc1)Nc1cc(-c2nc3ncccc3o2)ccn1 [Compound 634] | B (B (Fold Activation <250%)) | > 150 | – | – | –
2 | COc1cc(NC(=N)Nc2cc(-c3nc4ncccc4o3)ccn2)cc(OC)c1OC [Compound 635] | A (A (Fold activation >250%)) | > 150 | – | – | –
3 | COc1cc(C(=O)Nc2cc(-c3nc4ncccc4o3)ccn2)ccc1CN1CCN(C)CC1 [Compound 637] | B (B (Fold Activation <250%)) | > 150 | – | – | –
4 | COc1cc(C(=O)Nc2cc(-c3nc4ncccc4o3)ccn2)ccc1CN1CCNCC1 [Compound 638] | B (B (Fold Activation <250%)) | > 150 | – | – | –
5 | CCn1ccc(C(=O)Nc2cc(-c3nc4ncccc4o3)ccn2)n1 [Compound 641] | B (B (Fold Activation <250%)) | > 150 | – | – | –
6 | COc1cc(C(=O)Nc2cc(-c3nc4ncccc4o3)ccn2)ccc1CN1CCOCC1 [Compound 642] | B (B (Fold Activation <250%)) | > 150 | – | – | –
7 | COc1cc(C(=O)Nc2cc(-c3nc4ncccc4o3)ccn2)ccc1CN1CCN(Cc2ccccc2)CC1 [Compound 643] | B (B (Fold Activation <250%)) | 5 to 50 | – | – | –
8 | Cc1cnc(C(=O)Nc2ccccc2-c2cn3c(CN4CCNCC4)csc3n2)cn1 [Compound 644] | A (A (Fold activation >250%)) | 5 to 50 | – | – | –
9 | O=C(Nc1ccccc1-c1cn2c(CN3CCNCC3)csc2n1)c1cnc2ccccc2c1 [Compound 645] | A (A (Fold activation >250%)) | < 5 | – | – | –
10 | O=C(Nc1ccccc1-c1nc2cc(CN3CCNCC3)cnc2s1)c1ccc2ccccc2n1 [Compound 646] | A (A (Fold activation >250%)) | 5 to 50 | – | – | –
11 | CN(C)CCOCc1csc2nc(-c3ccccc3NC(=O)c3cnc4ccccc4n3)cn12 [Compound 647] | A (A (Fold activation >250%)) | < 5 | – | – | –
12 | O=C(Nc1ccccc1-c1cn2c(CO)csc2n1)c1cnc2ccccc2n1 [Compound 648] | B (B (Fold Activation <250%)) | < 5 | – | – | –
13 | CN1CCN(C(=O)Cc2csc3nc(-c4ccccc4NC(=O)c4cnc5ccccc5n4)cn23)CC1 [Compound 649] | A (A (Fold activation >250%)) | < 5 | – | – | –
14 | CC(=O)N1CCN(Cc2csc3nc(-c4ccccc4NC(=O)c4cnc5ccccc5n4)cn23)CC1 [Compound 651] | A (A (Fold activation >250%)) | < 5 | – | – | –
15 | O=S(=O)(Nc1cc(-c2nc3ncccc3o2)ccn1)c1ccc(Cl)cc1 [Compound 652] | – | – | – | – | IC50 (mass spectrometry assay): 51 to 100 µM
16 | COc1ccc(C)cc1S(=O)(=O)Nc1cc(-c2nc3ncccc3o2)ccn1 [Compound 653] | – | – | – | – | IC50 (mass spectrometry assay): 101 to 150 µM
17 | O=S(=O)(Nc1cccc(-c2nc3ccncc3s2)c1)c1ccc(S(=O)(=O)c2ccccc2)s1 [Compound 654] | – | – | – | – | IC50 (mass spectrometry assay): > 150 µM
18 | COc1ccc(NC(=S)Nc2cc(-c3nc4ncccc4o3)ccn2)cc1OC [Compound 660] | B (B (Fold Activation <250%)) | 5 to 50 | – | – | –
19 | COc1cc(NC(=S)Nc2cc(-c3nc4ncccc4o3)ccn2)cc(OC)c1 [Compound 661] | B (B (Fold Activation <250%)) | < 5 | – | – | –
20 | COc1cc(NC(=S)Nc2cc(-c3nc4ncccc4o3)ccn2)cc(OC)c1OC [Compound 663] | B (B (Fold Activation <250%)) | 5 to 50 | – | – | –
21 | FC(F)(F)c1cccc(Cl)c1NC(=S)Nc1cc(-c2nc3ncccc3o2)ccn1 [Compound 667] | – | 5 to 50 | – | – | –
22 | O=C(Nc1ccccc1-c1nc2ncccc2o1)c1ccc(Oc2ncccn2)cc1 [Compound 668] | B (B (Fold Activation <250%)) | 5 to 50 | – | – | –

Row | SMILES | FOLD ACT. MS [1] | EC50 [2] [µM] | EC50 [3] [µM] | FOLD ACT. MS [4] | further results
23 | COc1ccc(OC(=O)Nc2ccccc2-c2nc3ncccc3o2)cc1OC [Compound 670] | B (B (Fold Activation <250%)) | – | – | – | EC50: 5 to 50 µM
24 | O=C(Nc1ccccc1-c1cn2c(CNCC(O)CO)csc2n1)c1cnc2ccccc2n1 (stereo not drawn) [Compound 676] | A (A (Fold activation >250%)) | < 5 | – | – | –
25 | O=C1CN(Cc2csc3nc(-c4ccccc4NC(=O)c4cnc5ccccc5n4)cn23)CCN1 [Compound 677] | A (A (Fold activation >250%)) | < 5 | – | – | –
26 | Cc1cc(C(=O)Nc2ccccc2-c2cn3c(CN4CCNCC4)csc3n2)n(C)n1 [Compound 678] | B (B (Fold Activation <250%)) | 5 to 50 | – | – | –
27 | COc1ccc(C(=O)Nc2ccccc2-c2cn3c(CN4CCNCC4)csc3n2)cc1F [Compound 679] | B (B (Fold Activation <250%)) | 5 to 50 | – | – | –
28 | O=C(Nc1ccccc1-c1cn2c(CCN3CCNCC3)csc2n1)c1cnc2ccccc2n1 [Compound 680] | A (A (Fold activation >250%)) | < 5 | – | – | –
29 | COc1cc(C(=O)Nc2ccccc2-c2nc3cc(CN4CCOCC4)cnc3s2)cc(OC)c1OC [Compound 681] | – | 5 to 50 | – | – | –
30 | O=C(Nc1ccccc1-c1nc2cc(CN3CCOCC3)cnc2s1)c1ccc2c(c1)OCO2 [Compound 683] | – | – | 5 to 50 | B (B (Fold Activation <250%)) | –
31 | Cc1ccc(C(=O)Nc2ccccc2-c2nc3cc(CN4CCOCC4)cnc3s2)cc1C [Compound 684] | – | – | 5 to 50 | B (B (Fold Activation <250%)) | –
32 | N#Cc1cccc(C(=O)Nc2ccccc2-c2nc3cc(CN4CCOCC4)cnc3s2)c1 [Compound 685] | – | – | < 5 | B (B (Fold Activation <250%)) | –
33 | CN(C)c1cccc(C(=O)Nc2ccccc2-c2nc3cc(CN4CCOCC4)cnc3s2)c1 [Compound 686] | – | – | < 5 | A (A (Fold activation >250%)) | –
34 | COc1cc(C(=O)Nc2ccccc2-c2nc3cc(CN(C)C)cnc3s2)cc(OC)c1OC [Compound 689] | – | – | 5 to 50 | A (A (Fold activation >250%)) | –
35 | O=C(Nc1ccccc1-c1nc2ccc(CN3CCNCC3)nc2s1)c1cnc2ccccc2n1 [Compound 690] | – | – | < 5 | A (A (Fold activation >250%)) | –
36 | O=C(Nc1ccccc1-c1cn2c(CN3CCNCC3)csc2n1)c1cccc2cccnc12 [Compound 692] | – | – | 101 to 150 | B (B (Fold Activation <250%)) | –
37 | O=C(Nc1ccccc1-c1cn2c(CN3CCNCC3)csc2n1)c1cc(F)cc(F)c1 [Compound 695] | – | – | < 5 | A (A (Fold activation >250%)) | –
38 | O=C(Nc1ccccc1-c1cn2c(CN3CCNCC3)csc2n1)c1cccc(OC(F)(F)F)c1 [Compound 698] | – | – | < 5 | A (A (Fold activation >250%)) | –
39 | O=C(Nc1ccccc1-c1cn2c(COCC(O)CO)csc2n1)c1cnc2ccccc2n1 (stereo not drawn) [Compound 699] | – | – | 5 to 50 | A (A (Fold activation >250%)) | –
40 | COc1cc(C(=O)Nc2ccccc2-c2nc3cc(CN4CCN(C)CC4)cnc3s2)cc(OC)c1OC [Compound 702] | – | – | 5 to 50 | A (A (Fold activation >250%)) | –
41 | Cc1csc2nc(-c3ccccc3NC(=O)c3cnc4ccccc4n3)cn12 [Compound 707] | – | – | < 5 | A (A (Fold activation >250%)) | –
42 | O=C(Nc1ccccc1-c1cn2c(CN3CCNCC3)csc2n1)c1ccc(-c2ccccc2)cc1 [Compound 708] | – | – | < 5 | A (A (Fold activation >250%)) | –
43 | O=C(Nc1ccccc1-c1cn2c(CN3CCNCC3)csc2n1)c1cccc(-c2ccccc2)c1 [Compound 710] | – | – | < 5 | A (A (Fold activation >250%)) | –
